Assay results as given in BindingDB's records for patent US12344597 (Idorsia Pharmaceuticals, 2025).

Target: Lysophosphatidic acid receptor 1 (Homo sapiens, UniProt Q92633)
Test: Beta-Arrestin Recruitment Assay
From the text: The Tango™ EDG2-bla U2OS cells are obtained from Invitrogen. These cells contain the human LPA1 receptor cDNA linked to a TEV protease site and a Gal4-VP16 transcription factor integrated into the Tango™ GPCR-bla U2OS parental cell line. This parental cell line stably expresses a beta-arrestin/TEV protease fusion protein and the beta-lactamase (bla) reporter gene under the control of a UAS response element. Upon LPA (agonist) binding, LPA1 receptor gets activated, leading to arrestin-protease recruitment and proteolytic release of the transcription factor: The transcription factor then regulates transcription of a beta-lactamase reporter construct, which is measured upon addition of the live-cell substrate.10′000 Tango™ EDG2-bla U2OS cells are seeded in a 384-well black with clear bottom plate in 30 μl Freestyle 293 Expression Medium (Invitrogen) and incubated for 20 h at 37° C., 5% CO2. […] IC50 is the concentration of antagonist inhibiting 50% of the maximal response.

Sequence of Lysophosphatidic acid receptor 1 (Q92633 whole entry): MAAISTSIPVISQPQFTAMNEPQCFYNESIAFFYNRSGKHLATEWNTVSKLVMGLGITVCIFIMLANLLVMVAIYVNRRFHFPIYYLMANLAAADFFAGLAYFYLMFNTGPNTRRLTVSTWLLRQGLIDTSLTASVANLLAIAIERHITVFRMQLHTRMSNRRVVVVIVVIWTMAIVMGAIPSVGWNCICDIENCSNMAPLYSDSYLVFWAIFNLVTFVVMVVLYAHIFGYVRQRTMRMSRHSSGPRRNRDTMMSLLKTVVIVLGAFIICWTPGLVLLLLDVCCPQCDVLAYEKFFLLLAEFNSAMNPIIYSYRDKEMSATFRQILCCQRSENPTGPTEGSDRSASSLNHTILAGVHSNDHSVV

- IC50: 4 nM
SMILES: Cc1ccc(NC(=O)C2(c3ccccc3C(C)C)CN(CCC#N)C2)c(OC(F)F)n1 [US12344597, Example 11-16]
